# Measurements from paper PMC4514850, “A Novel TGR5 Activator WB403 Promotes GLP-1 Secretion and Preserves Pancreatic β-Cells in Type 2 Diabetic Mice” (PLoS ONE, 2015).
# Columns and labels:
# [1] = tested on: normal mice; assay: oral glucose tolerance test in normal mice; type: in vivo; settings: 4 g/kg glucose, oral 50, 100 mg/kg 30 min before load
# Method: (§1) Mice were fasted overnight (14 h) before glucose tolerance tests. Normal mice received a 4 g/kg glucose challenge and for diabetic mice it’s 2 g/kg. WB403 at 50, 100 mg/kg, or sitagliptin at 100 mg/kg were administrated orally 30 min prior to glucose load (n = 10). For vehicle group, 0.5% CMC was administrated. Blood glucose levels were measured from tail bleeds with a glucometer (Roche, Accu-Chek Performa) at specified time points. Animals were treated and assessed in the order of the vehicle, WB403 50, 100 mg/kg and sitagliptin 100 mg/kg group.
# (§2) Fig 2 Effects of WB403 on glucose tolerance during OGTT in normal and diabetic mice. OGTT time course and AUC in normal mice (A, B), HFD/STZ mice (C, D) and db/db mice (E, F). Values represent mean ± SD (n = 10). *p<0.05, **p<0.01, ***p<0.001 vs. vehicle group. Asterisks in A, C and E reflect significance between WB403 100 mg/kg and vehicle group.
# [2] = tested on: primary enterocytes; assay: active GLP-1 secretion in primary enterocytes; type: cell-based; settings: Fig 1G
# Method: (§3) Endocrine differentiation was induced by seeding NCI-H716 cells in plates coated with Matrigel (Becton Dickinson). Cells were washed with RPMI-1640 medium without FBS and incubated in the same medium containing indicated compounds at 10 μmol/l. The condition medium was collected after 30 min. GLP-1 secretion in MIN6 or primary enterocytes was conducted similarly. To isolate primary enterocytes, ileum or colon was cut into 2 cm length, rinsed by PBS (pH7.2∼7.4) before dispersed in 10 mmol/l EDTA/PBS (pH7.4) for 15 min at room temperature, followed by pipetting up and down. Enterocytes were collected by filtration through a 70 μm cell strainer. To study the effect of WB403 on GLP-1 secretion in vivo, mice in group of three were fasted overnight and orally received 0, 50, 100 mg/kg of WB403 dispersed in 0.5% CMC with a DPP-4 inhibitor (5 mg/kg). There were 5 animals in each group. 2 g/kg glucose was administrated 30 min later and blood was collected 10 min after glucose challenge.
# (§4) The GLP-1 (active) ELISA kit was purchased from Millipore, and insulin ELISA kit was from Mercodia. For quantitative determination of cAMP, a competitive enzyme immunoassay kit from R&D system was used. All immunoassays were performed according to manufacturers’ instructions.
# [3] = tested on: db/db mice; assay: oral glucose tolerance test in db/db mice; type: in vivo; settings: 2 g/kg glucose, oral 50, 100 mg/kg 30 min before load
# Method: Five-week old male ICR mice and db/db (C57BL BKS cg-M+/+ lepr-/-) mice were purchased from Shanghai SLAC Laboratory Animal Co., Ltd. (Shanghai, China). Mice were housed 4–5 per cage and allowed access to normal chow diet and autoclaved water freely. They were fed at a constant room temperature (25°C) with a 12-h light (7:00 AM)/dark (7:00 PM) cycle. All the mice were monitored at least daily, and no adverse events were observed. In general, the db/db mice show a high food intake at 4-week old and become obese and develop type 2 diabetes at 8-week age. Postprandial 2 h blood glucose was assessed and mice with the similar degree of hyperglycemia and body weight were randomized into different groups in order to get a similar average PBG in each group.
# as §1
# Fig 2 Effects of WB403 on glucose tolerance during OGTT in normal and diabetic mice. […]
# [4] = tested on: normal mice; assay: 4-week treatment of normal mice (hypoglycemia risk); type: in vivo; settings: 100 mg/kg, 4 weeks
# Method: Mice were treated for 4 weeks by WB403 and sitagliptin at 100 mg/kg. Glibenclamide at 2.5 mg/kg was used as positive control for hypoglycemia. FBG (A) and PBG (B) were measured every week. Values are mean ± SD (n = 10). *p<0.05, **p<0.01 vs. vehicle group. (TIF) Click here for additional data file.
# [5] = tested on: HFD/STZ mice; assay: oral glucose tolerance test in HFD/STZ mice; type: in vivo; settings: 2 g/kg glucose, oral 50, 100 mg/kg 30 min before load
# Method: For generation of nongenetic mice model of type 2 diabetes, ICR mice were fed with high fat diet (HFD, with 60% fat, Research Diets) for three weeks, then fasted for 5 h before receiving a single dose of streptozotocin (STZ, Sigma) intraperitoneally (ip) at 80 mg/kg to induce partial insulin deficiency. […] Diabetes was assessed using conventional criteria. Mice with similar degree of hyperglycemia and body weight were randomized into various groups in order to get a similar average PBG in each group.
# as §1, §2
# [6] = tested on: ICR mice; assay: GLP-1 secretion in vivo in ICR mice; settings: oral 50, 100 mg/kg with DPP-4 inhibitor 5 mg/kg; blood 10 min after 2 g/kg glucose; n = 5
# Method: as §3, §4
# [7] = tested on: MIN6 cells; assay: active GLP-1 secretion in MIN6 cells; type: cell-based, mouse; settings: Fig 1H
# Method: as §3, §4
smiles,measurement,setting,value
"CCc1cc(-c2nc(C)c(COCc3ccc(Br)cc3)s2)ccn1 [WB403, 4-(5-((4-bromobenzyloxy)-methyl)-4-methylthiazol-2-yl)-2-ethylpyridine]",blood glucose tolerance (OGTT) vs vehicle,[1],significant improvement in blood glucose tolerance
same,GLP-1 stimulation in primary enterocytes,[2],outstanding effect in GLP-1 stimulation
same,blood glucose tolerance (OGTT) vs vehicle,[3],The same results
same,FBG lowering in normal mice,[4],did not cause significant FBG and PBG lowering
same,PBG lowering in normal mice,[4],did not cause significant FBG and PBG lowering
same,blood glucose tolerance (OGTT) vs vehicle,[5],The same results
same,GLP-1 concentration in serum,[6],significantly increased
same,GLP-1 stimulation in MIN6 cells,[7],GLP-1 stimulation effect of WB403 was confirmed
